{"source": "patent US20190060298A1", "about": "“NEW DRUG FOR THE TREATMENT AND/OR PREVENTION OF DEPRESSIVE DISORDERS” (SORBONNE UNIVERSITE, priority 2013, published 2019)", "key": {"Sprague-Dawley rats [1]": {"tested_on": "Sprague-Dawley rats", "assay": "Sweet water consumption after sensitization paradigm", "assay_type": "in vivo", "settings": "V animals; TEMPOL 288 μmol/kg/day 15 days from D11; after three weeks of CMS applied at D31", "description": "(§1) Sprague-Dawley rats were subjected to chronic social defeat (CSD) and then, four weeks later, to three weeks of chronic mild stress (SSP rats). The chronic mild stress protocol (CMS) was performed as previously described (see Blugeot et al., 2011). The control rats were control intruders (not subjected to CSD) not exposed to the three weeks of CMS (C rats).\n(§2) The CMS protocol is derived from that described by Willner et al. (1992). Briefly, various mild stresses were applied every day, over a period of three weeks. Briefly, from Monday to Friday, every morning, animals were placed in a small cage (10×16×15 cm) for 1 hour. In the afternoon, they were shaken for 10 min (Monday and Thursday), placed in a small cage containing water (2 cm high, Tuesday) or placed in another cage for 4 hours (Wednesday and Friday). Every night, the cage was inclined (45°, Tuesday and Thursday) or contained wet bedding (Wednesday and Friday). On Saturday and Sunday, the rats were subjected to a reversed dark/light cycle for 30 min, every three hours.\nExperiments were performed as described by Becker et al. (2008) and Blugeot et al. (2011). Sucrose and water intakes were measured daily at 9:00 am. Weekly sweet water consumption was expressed as a percentage of control values (measured one week before the beginning of the conditioning sessions). Sweet water consumption indicated a preference for sucrose. […]"}, "CA3 pyramidal cells": {"tested_on": "CA3 pyramidal cells", "assay": "CA3 dendritic architecture in Nrf2-null mice", "assay_type": "in vivo", "settings": "Tempol 288 μmol/kg/day, osmotic mini-pump, 4 weeks", "description": "Nrf2-null mice were backcrossed onto the C57BL/6 J background for seven generations using alternating male and female stock mice from the CNRS TAAM UPS44 (Orléans). The resulting wild-type (Nrf2+/+) and Nrf2−/− mice were genotyped and only male mice at 6 weeks old at the beginning of the experiments were used. The level of oxidative stress in mice was first evaluated through the measure of lipid peroxidation. Lipid peroxidation was assessed by measuring TBARS formation with a commercial assay kit (Cayman Chemical, Ann Arbor, Mich., USA), in accordance with the manufacturer's instructions. TBARS concentration was calculated from an MDA standard curve and normalized.\nTo examine the depression-like phenotype of Nrf2-null mice, the helplessness behaviour, anhedonia and HPA hyperactivity (corticosterone, and adrenal gland weight) were assessed before and after a chronic mild stress (CMS) protocol. The neuroanatomical morphology of hippocampus in mice was estimated using Golgi Staining procedure. Tempol (4-hydroxy-2,2,6,6-tetramethylpiperidine 1-oxyl, Sigma-Aldrich, St Louis, Mo., USA), which was administered at a dose of 288 μmol/kg/day (Wilcox, 2010), was dissolved in distilled water and delivered via ALZET osmotic mini-pumps (1004, Charles River Laboratories, France). […]"}, "BDNF": {"tested_on": "BDNF", "assay": "Serum BDNF assay", "assay_type": "in vivo, Sprague-Dawley rats", "settings": "vulnerable animals vs vulnerable animals treated with vehicle", "description": "Blood samples (200 μl) were collected from conscious rats at various time points (D-4, D5, D11, D31 at midday). These samples were taken from the tail vein and were collected in Eppendorf tubes. The samples were centrifuged to separate off the serum, which was stored at −20° C. until BDNF analysis. BDNF concentrations were determined at a dilution of 1:25, with a commercial BDNF assay (Promega Corporation), in 96-well plates (Corning Costar® EIA plate), according to the manufacturer's instructions.\nAnother serum BDNF was carried out. Blood samples (200 μl) of awake rats were collected at different time-points (D-4, D9, D35, D57 at midday) from the vein of the tail into eppendorf tubes. After centrifugation, serum was separated and stored at −20° C. until analysis for BDNF. BDNF concentrations were determined at dilution of 1:25 with a commercial BDNF assay (Promega Corporation), in 96-well plates (Corning Costar® EIA plate), according to the manufacturer's instructions.\nTempol (4-hydroxy-2,2,6,6-tetramethylpiperidine 1-oxyl), which was administered at a dose of 288 μmol/kg/day [Sigma-Aldrich, St Louis, Mo., USA]), was dissolved in distilled water and delivered via ALZET osmotic mini-pumps (2002, Charles River Laboratories, France). […]"}, "Sprague-Dawley rats [2]": {"tested_on": "Sprague-Dawley rats", "assay": "Forced swimming test after sensitization paradigm", "assay_type": "in vivo", "settings": "V animals; TEMPOL 288 μmol/kg/day 15 days from D11; after three weeks of CMS applied at D31", "description": "as §1, §2\nFour days after the end of SSP paradigm (D52), FST experiments were performed between 08:00 and 11:30. Experiments were performed as described by Becker et al. (2008, Mol. Psychiatry 13, 1079) and Blugeot et al. (2011). Immobility time was measured with a stopwatch. […] A trained experimenter blind to the treatment observed the animals and measured immobility time. […]"}}, "data": [{"smiles": "CC1(C)CC(O)CC(C)(C)N1[O]", "note": "[TEMPOL, 4-hydroxy-2,2,6,6-tetramethylpiperidin-1-oxyl]", "values": [{"measurement": "sweet water consumption", "setting": "Sprague-Dawley rats [1]", "result": "prevented"}, {"measurement": "dendritic retraction in CA3 pyramidal cells", "setting": "CA3 pyramidal cells", "result": "prevented"}, {"measurement": "serum BDNF levels", "setting": "BDNF", "result": "induced the recovery of serum BDNF levels"}, {"measurement": "immobility time in the forced swimming test", "setting": "Sprague-Dawley rats [2]", "result": "prevented the increase in immobility time"}]}]}
